In patent US20110020252A1, “METHOD OF LONG LASTING HUMAN SKIN TANNING” (priority 2010, published 2011):

Columns and labels:
[1] = Safety of Rifampin at 600 to 1200 mg daily; assay type: in vivo, human; settings: 600 mg to 1200 mg as a daily dose
Source text: Symptoms of overdose may include swelling of face or around eyes, itching over the entire body, orange or red discoloration of skin or eyes, nausea, vomiting, drowsiness, and loss of consciousness. If overdose is suspected, contact your local poison control center or emergency room immediately. One needs to take the prescribed amount for tanning to avoid any overdosing.
It has one of the best safety records taken for such a long time. It can be safely used for tanning in the doses of 600 to 1200 mg (dose depending on the weight) day orally for 3-5 days or till one obtains the desired tan without any untoward effects.

[2] = human, in vivo
[3] = 600 mg to 1200, up to 6 months or more, tuberculosis treatment; cited from earlier work
[4] = cited from earlier work
human skin = assay: Skin tanning with oral Rifampin plus sun/UVR exposure (patient, volunteers, tanning booth users)
skin = settings: cited from earlier work
hepatic enzyme = settings: compared with Rifampin; cited from earlier work

## CO[C@H]1/C=C/O[C@@]2(C)Oc3c(C)c(O)c4c(O)c(c(/C=N/N5CCN(C)CC5)c(O)c4c3C2=O)NC(=O)/C(C)=C\C=C\[C@H](C)[C@H](O)[C@@H](C)[C@@H](O)[C@@H](C)[C@H](OC(C)=O)[C@@H]1C [Rifampin]
[1]
  overdose effects: haven't noticed any overdose effects
[2]
  time until urine and facial orange coloration disappears: ≤ 24 h
[3]
  adverse effects: without any serious adverse effect
[4]; 600 mg dose on an empty stomach
  plasma levels, mean: 7000 ng/mL
[4]; antacids
  effect of antacids on absorption: do not affect absorption
[4]; in vivo
  administered drug excreted unchanged through the urine: about 7%
  excretion into breast milk: excreted into breast milk
  fraction metabolized by the liver microsomal enzymes: Approximately 85%
  time after which almost the entire drug is deacetylated: about 6 hours
  urinary elimination, share of the dose that is excreted: about 30%
[4]; orally administered
  time to peak plasma concentrations: 1 to 2 h
[4]; taken with a meal
  peak blood concentration when taken with a meal: 36%
[4]; within 24 hours
  dose eliminated within 24 hours: Approximately 50%
Human skin; […]
  tanning effect by skin type: more pronounced in brown skinned
Human skin; experimental test individuals using this method of tanning
  dandruff production: less dandruff production
Human skin; use for many months with exposure to Sun light
  skin staining of tuberculosis patients: became much darkly stained
Human skin; volunteers and tanning booth users, minimum UVR exposure
  tanning result: good natural looking long lasting tanning

## O=C[C@H](O)[C@H](O)[C@H](O)CO [D-ribose]
skin; applied directly to a wound
  effect on wound surface: caused the surface to become brown
skin; in water applied to the skin
  effect on tanning: showed no such effect on tanning

## CO[C@H]1/C=C/O[C@@]2(C)Oc3c(C)c(O)c4c(c3C2=O)C2=NC3(CCN(CC(C)C)CC3)NC2=C(NC(=O)/C(C)=C\C=C\[C@H](C)[C@H](O)[C@@H](C)[C@@H](O)[C@@H](C)[C@H](OC(C)=O)[C@@H]1C)C4=O [Rifabutin]
Hepatic enzyme
  hepatic enzyme induction: less hepatic enzyme induction
